According to patent US9408852B2, “Method of lowering serum uric acid levels with (S)-tofisopam” (PHARMOS CORPORATION, priority 2011, dated 2016):
“And” between values parts separate entries of the source, which are not always exact repeats. Equal entries are not always repeated.

Assays:
[1] = system: serum uric acid; experiment: Serum uric acid after single oral doses in male healthy volunteers (Example 2); type: in vivo, human; conditions: for Mean CFB (change from baseline) in uric acid levels: male healthy volunteers, n = 6
Procedure: Male healthy volunteers received 50-400 mg enantiomerically-pure (S)-tofisopam by oral administration. Mean serum uric acid values fell by 23% to 30% within 4 hours after receiving single doses (Table 1).

[2] = system: serum uric acid; experiment: Serum uric acid in healthy men and postmenopausal women, single-dose and multiple-dose phases (Example 3); type: in vivo, human
Description: In another study in healthy men and postmenopausal women, the trial period included a single-dose phase (Day 1) and a multiple-dose phase (Days 2-6). […] With multiple-dose oral administration (twice a day (BID) or three times a day (TID) on days 2-6), this decrease was more pronounced.

[3] = biological target: xanthine oxidase (Homo sapiens, UniProt P47989); experiment: Xanthine oxidase inhibition; type: biochemical; conditions: unlike allopurinol
[4] = system: serum uric acid; experiment: Serum uric acid in male and female patients with hyperuricemia and gout, 7 days (Example 7); type: in vivo, human; conditions: 50 mg qd Day 1 and Day 7, tid Days 2 to 6, hyperuricemia and gout
Procedure: The study lasted 7 days, and patients were treated with placebo or 50 mg of enantiomerically-pure (S)-tofisopam once a day (qd) on Day 1 and Day 7 of the study, and with placebo or 50 mg of enantiomerically-pure (S)-tofisopam three times a day (tid) for Days 2 to 6 of the study. […] In Table 6, days indicated with a minus sign (e.g. D-1) indicate the time point corresponding to that number of days before treatment was initiated. For example, D-14 is the time point fourteen days before treatment was initiated.

[5] = Day 1 to Day 2: Day 1 0 h + Day 2
[6] = Day 8 (after treatment stopped)

xanthine oxidase, sequence (P47989 whole entry, species assumed): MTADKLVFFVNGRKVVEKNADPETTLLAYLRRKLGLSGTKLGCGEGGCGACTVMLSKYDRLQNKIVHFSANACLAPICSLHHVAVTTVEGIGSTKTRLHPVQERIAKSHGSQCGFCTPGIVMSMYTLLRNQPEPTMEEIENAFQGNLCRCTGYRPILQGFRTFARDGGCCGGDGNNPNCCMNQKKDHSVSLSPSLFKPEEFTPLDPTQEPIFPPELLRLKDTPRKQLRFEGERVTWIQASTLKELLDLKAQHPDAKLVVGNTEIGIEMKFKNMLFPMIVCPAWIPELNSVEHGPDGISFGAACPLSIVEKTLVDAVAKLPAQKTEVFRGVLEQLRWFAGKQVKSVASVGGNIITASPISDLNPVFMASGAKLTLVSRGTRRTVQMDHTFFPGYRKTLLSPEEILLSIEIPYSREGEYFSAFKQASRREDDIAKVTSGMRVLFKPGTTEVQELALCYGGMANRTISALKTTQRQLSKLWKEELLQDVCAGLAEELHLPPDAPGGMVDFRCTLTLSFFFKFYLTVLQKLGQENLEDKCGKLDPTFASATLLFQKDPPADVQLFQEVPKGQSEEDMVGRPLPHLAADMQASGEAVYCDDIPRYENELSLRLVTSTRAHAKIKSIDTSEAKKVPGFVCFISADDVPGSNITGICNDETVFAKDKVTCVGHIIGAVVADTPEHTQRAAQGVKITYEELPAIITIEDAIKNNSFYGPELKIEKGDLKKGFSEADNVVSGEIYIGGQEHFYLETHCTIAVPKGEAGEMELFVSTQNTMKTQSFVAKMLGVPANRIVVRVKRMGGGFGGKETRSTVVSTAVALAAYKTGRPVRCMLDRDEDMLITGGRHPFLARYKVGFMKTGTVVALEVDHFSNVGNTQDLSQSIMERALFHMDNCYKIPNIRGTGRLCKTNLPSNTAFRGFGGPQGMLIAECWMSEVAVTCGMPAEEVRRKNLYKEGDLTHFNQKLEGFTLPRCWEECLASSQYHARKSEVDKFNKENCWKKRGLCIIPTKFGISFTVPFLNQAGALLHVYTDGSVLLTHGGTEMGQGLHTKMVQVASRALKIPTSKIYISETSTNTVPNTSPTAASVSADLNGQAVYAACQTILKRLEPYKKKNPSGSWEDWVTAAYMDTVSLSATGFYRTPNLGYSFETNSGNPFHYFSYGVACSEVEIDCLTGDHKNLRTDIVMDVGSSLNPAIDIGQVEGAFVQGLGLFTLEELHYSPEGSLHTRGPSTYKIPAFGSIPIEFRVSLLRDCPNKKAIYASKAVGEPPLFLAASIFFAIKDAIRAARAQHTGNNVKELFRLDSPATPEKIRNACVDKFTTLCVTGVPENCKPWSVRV

Which results are given for CC[C@@H]1C(C)=NN=C(c2ccc(OC)c(OC)c2)c2cc(OC)c(OC)cc21 [(S)-tofisopam]?
Mean CFB (change from baseline) in uric acid levels ([1]; single oral dose 50 mg, 4 hours after dose): −23%; Mean CFB (change from baseline) in uric acid levels ([1]; single oral dose 50 mg, 24 hours after dose): −25%; Mean CFB (change from baseline) in uric acid levels ([1]; single oral dose 50 mg, 48 hours after dose): −24%; Mean CFB (change from baseline) in uric acid levels ([1]; single oral dose 100 mg, 4 hours after dose): −25%; Mean CFB (change from baseline) in uric acid levels ([1]; single oral dose 100 mg, 24 hours after dose): −28%; Mean CFB (change from baseline) in uric acid levels ([1]; single oral dose 100 mg, 48 hours after dose): −29%; Mean CFB (change from baseline) in uric acid levels ([1]; single oral dose 200 mg, 4 hours after dose): −29%; Mean CFB (change from baseline) in uric acid levels ([1]; single oral dose 200 mg, 24 hours after dose): −36%; Mean CFB (change from baseline) in uric acid levels ([1]; single oral dose 200 mg, 48 hours after dose): −37%; Mean CFB (change from baseline) in uric acid levels ([1]; single oral dose 300 mg, 4 hours after dose): −30%; Mean CFB (change from baseline) in uric acid levels ([1]; single oral dose 300 mg, 24 hours after dose): −48%; Mean CFB (change from baseline) in uric acid levels ([1]; single oral dose 300 mg, 48 hours after dose): −49%; Mean CFB (change from baseline) in uric acid levels ([1]; single oral dose 400 mg, 4 hours after dose): −27%; Mean CFB (change from baseline) in uric acid levels ([1]; single oral dose 400 mg, 24 hours after dose): −48%; Mean CFB (change from baseline) in uric acid levels ([1]; single oral dose 400 mg, 48 hours after dose): −45%; Time course of uric acid levels after single dose ([1]; single oral doses 50-400 mg, 4, 24 and 48 hours): decreased further up to the 24-hour timepoint, with no further decrease at 48 hours; Dose relation of decreases in uric acid levels ([1]; single oral doses 50-400 mg, slightly lower decreases at 400 mg): dose-related up to the 300 mg dose; Change from Baseline serum uric acid ([2]; 50 mg TID (single dose Day 1), Postmenopausal women, Day 2 AM): −27%; Change from Baseline serum uric acid ([2]; 50 mg TID (single dose Day 1), Postmenopausal women, Day 4 AM): −58%; Change from Baseline serum uric acid ([2]; 50 mg TID (single dose Day 1), Postmenopausal women, Day 7 AM): −65%; Change from Baseline serum uric acid ([2]; 50 mg TID (single dose Day 1), Young men, Day 2 AM): −19%; Change from Baseline serum uric acid ([2]; 50 mg TID (single dose Day 1), Young men, Day 4 AM): −63%; Change from Baseline serum uric acid ([2]; 50 mg TID (single dose Day 1), Young men, Day 7 AM): −59%; Change from Baseline serum uric acid ([2]; 150 mg BID (single dose Day 1), Postmenopausal women, Day 2 AM): −48%; Change from Baseline serum uric acid ([2]; 150 mg BID (single dose Day 1), Postmenopausal women, Day 4 AM): −76%; Change from Baseline serum uric acid ([2]; 150 mg BID (single dose Day 1), Postmenopausal women, Day 7 AM): −71%; Change from Baseline serum uric acid ([2]; 150 mg BID (single dose Day 1), Young men, Day 2 AM): −31%; Change from Baseline serum uric acid ([2]; 150 mg BID (single dose Day 1), Young men, Day 4 AM): −72%; Change from Baseline serum uric acid ([2]; 150 mg BID (single dose Day 1), Young men, Day 7 AM): −72%; Uric acid levels after a single oral dose ([2]; 24 hours after single dose of 50 mg or 150 mg (Day 1), men and women): Decreased; Reductions from baseline in uric acid ([2]; by the morning of Day 4, male and female subjects, 50 mg TID or 150 mg BID): > 50%; Inhibition of xanthine oxidase [3]: does not inhibit; Percent change in serum uric acid, individual patients (P# 1-13) ([4]; Day 1 6 h (Day 1 0 h = 0.0)): −12.0% and 4.1% and −4.3% and −8.0% and −12.5% and −8.1% and −13.9% and −8.2% and −5.6%; Percent change in serum uric acid, mean (M) of 13 patients ([4]; Day 1 6 h (Day 1 0 h = 0.0)): −6.9%; Percent change in serum uric acid, individual patients (P# 1-13) [4, 5]: −10.7% and −9.6% and −4.3% and −7.3% and −8.9% and −8.1% and −12.0% and −2.6% and −3.5%; Percent change in serum uric acid, mean (M) of 13 patients [4, 5]: −6.8%; Percent change in serum uric acid, individual patients (P# 1-13) ([4]; Day 2 (Day 1 0 h = 0.0)): −21.3% and −19.2% and −8.6% and −14.7% and −17.7% and −16.2% and −24.1% and −5.2% and −7.0%; Percent change in serum uric acid, mean (M) of 13 patients ([4]; Day 2 (Day 1 0 h = 0.0)): −13.6%; Percent change in serum uric acid, individual patients (P# 1-13) ([4]; Day 3 (Day 1 0 h = 0.0)): −32.0% and −43.8% and −14.3% and −30.7% and −36.5% and −18.9% and −45.6% and −12.4% and −16.9% and −9.6%; Percent change in serum uric acid, mean (M) of 13 patients ([4]; Day 3 (Day 1 0 h = 0.0)): −26.6%; Percent change in serum uric acid, individual patients (P# 1-13) ([4]; Day 4 (Day 1 0 h = 0.0)): −38.7% and −54.8% and −27.1% and −42.7% and −43.8% and −37.8% and −54.4% and −59.8% and −35.2%; Percent change in serum uric acid, mean (M) of 13 patients ([4]; Day 4 (Day 1 0 h = 0.0)): −41.8%; Percent change in serum uric acid, individual patients (P# 1-13) ([4]; Day 5 (Day 1 0 h = 0.0)): −48.0% and −52.1% and −40.0% and −36.0% and −45.8% and −33.8% and −50.6% and −25.8% and −39.4%; Percent change in serum uric acid, mean (M) of 13 patients ([4]; Day 5 (Day 1 0 h = 0.0)): −41.1%; Percent change in serum uric acid, individual patients (P# 1-13) ([4]; Day 6 (Day 1 0 h = 0.0)): −40.0% and −53.4% and −31.4% and −64.0% and −45.8% and −31.1% and −50.6% and −28.9% and −39.4%; Percent change in serum uric acid, mean (M) of 13 patients ([4]; Day 6 (Day 1 0 h = 0.0)): −43.1%; Percent change in serum uric acid, individual patients (P# 1-13) ([4]; Day 6 to Day 7: Day 6 + Day 7): −44.0% and −56.2% and −36.4% and −56.0% and −46.9% and −31.1% and −53.2% and −34.5% and −40.8%; Percent change in serum uric acid, mean (M) of 13 patients ([4]; Day 6 to Day 7: Day 6 + Day 7): −45.1%; Percent change in serum uric acid, individual patients (P# 1-13) ([4]; Day 7 (Day 1 0 h = 0.0)): −48.0% (2×) and −58.9% and −41.4% and −47.9% and −31.1% and −55.7% and −40.2% and −42.3%; Percent change in serum uric acid, mean (M) of 13 patients ([4]; Day 7 (Day 1 0 h = 0.0)): −47.1%; Percent change in serum uric acid, individual patients (P# 1-13) [4, 6]: −36.0% (2×) and −46.6% and −32.9% and −41.7% and −24.3% and −45.6% and −30.9% and −26.8%; Percent change in serum uric acid, mean (M) of 13 patients [4, 6]: −35.5%
